Measured values from patent US9808003B2, “Herbicidally active 2-(substituted-phenyl)-cyclopentane-1,3-dione compounds and derivatives thereof” (Syngenta Limited, priority 2013, dated 2017).

Tests used:
Test in all cases: Test 1A glasshouse assay, post-emergence herbicidal activity
Assay type in all cases: in vivo
[1] = tested on: Alopecurus myosuroides (ALOMY); conditions: Alopecurus myosuroides, 312 h, application rate 250 g/ha, 13 days after application, visual (100%=total damage; 0%=no damage), read-out: Post-emergence Herbicidal Activity (% Phytotoxicity) ALOMY
Protocol: (§1) Seeds of a variety of test species were sown in standard soil in pots. After cultivation for one day (pre-emergence) or after 8 days cultivation (post-emergence) under controlled conditions in a glasshouse (at 24/16° C., day/night; 14 hours light; 65% humidity), the plants were sprayed with an aqueous spray solution derived from the formulation of the technical active ingredient in acetone/water (50:50) solution containing 0.5% Tween 20 (polyoxyethelyene sorbitan monolaurate, CAS RN 9005-64-5). The test plants were then grown under controlled conditions in a glasshouse (at 24/16° C., day/night; 14 hours light; 65% humidity) and watered twice daily. 13 days after application of the test herbicide, for pre- and post-emergence, the test was evaluated visually for percentage phytotoxicity to the plant (where 100%=total damage to plant; 0%=no damage to plant).
(§2) Lolium perenne (LOLPE), Alopecurus myosuroides (ALOMY), Echinochloa crus-galli (ECHCG), and Avena fatua (AVEFA); these are all grassy monocotyledonous weeds.

[2] = tested on: Avena fatua (AVEFA); conditions: Avena fatua, 312 h, application rate 250 g/ha, 13 days after application, visual (100%=total damage; 0%=no damage), read-out: Post-emergence Herbicidal Activity (% Phytotoxicity) AVEFA
Protocol: as §1, §2

[3] = tested on: Echinochloa crus-galli (ECHCG); conditions: Echinochloa crus-galli, 312 h, application rate 250 g/ha, 13 days after application, visual (100%=total damage; 0%=no damage), read-out: Post-emergence Herbicidal Activity (% Phytotoxicity) ECHCG
Protocol: as §1, §2

[4] = tested on: Lolium perenne (LOLPE); conditions: Lolium perenne, 312 h, application rate 250 g/ha, 13 days after application, visual (100%=total damage; 0%=no damage), read-out: Post-emergence Herbicidal Activity (% Phytotoxicity) LOLPE
Protocol: as §1, §2

Row | Compound | pest or weed control at 250 g/ha [1] [%] | pest or weed control at 250 g/ha [2] [%] | pest or weed control at 250 g/ha [3] [%] | pest or weed control at 250 g/ha [4] [%]
1 | Cc1cc(C)c(C2C(=O)CC(CCNC(=O)c3ccsc3)C2=O)c(C)c1 (centres unmarked) [Compound A4] | 70 | 60 | 100 | 80
2 | Cc1cc(C)c(C2C(=O)CC(CCNC(=O)c3cccs3)C2=O)c(C)c1 (centres unmarked) [Compound A5] | 50 | 30 | 60 | 70
3 | Cc1cc(C)c(C2C(=O)CC(CCNC(=O)c3ccc(Cl)c(Cl)c3)C2=O)c(C)c1 (centres unmarked) [Compound A6] | 30 | 60 | 90 | 90
4 | Cc1cc(C)c(C2C(=O)CC(CCNC(=O)c3ccco3)C2=O)c(C)c1 (centres unmarked) [Compound A7] | 60 | 50 | 90 | 60
5 | Cc1cc(C)c(C2C(=O)CC(CCNC(=O)C3CCC3)C2=O)c(C)c1 (centres unmarked) [Compound A8] | 60 | 70 | 80 | 90
6 | Cc1cc(C)c(C2C(=O)CC(CCNC(=O)C3CCCC3)C2=O)c(C)c1 (centres unmarked) [Compound A9] | 60 | 50 | 70 | 80
7 | CCC(=O)NCCC1CC(=O)C(c2c(C)cc(C)cc2C)C1=O (centres unmarked) [Compound A10] | 60 | 70 | 50 | 70
8 | COc1ccccc1C(=O)NCCC1CC(=O)C(c2c(C)cc(C)cc2C)C1=O (centres unmarked) [Compound A11] | 70 | 70 | 100 | 100
9 | Cc1cc(C)c(C2C(=O)CC(CCNC(=O)c3ccc(C(F)(F)F)cc3)C2=O)c(C)c1 (centres unmarked) [Compound A12] | 80 | 100 | 100 | 100
10 | Cc1cc(C)c(C2C(=O)CC(CCNC(=O)c3ccc(F)c(Cl)c3)C2=O)c(C)c1 (centres unmarked) [Compound A14] | 60 | 70 | 100 | 70
11 | Cc1cc(C)c(C2C(=O)CC(CCNC(=O)c3ccc(OC(F)(F)F)cc3)C2=O)c(C)c1 (centres unmarked) [Compound A15] | 60 | 90 | 100 | 90
12 | Cc1cc(C)c(C2C(=O)CC(CCNC(=O)c3ccoc3)C2=O)c(C)c1 (centres unmarked) [Compound A16] | 60 | 50 | 50 | 60
13 | Cc1cc(C)c(C2C(=O)CC(CCNC(=O)c3ccc(F)cc3F)C2=O)c(C)c1 (centres unmarked) [Compound A17] | 80 | 90 | 100 | 100
14 | COc1ccc(C(=O)NCCC2CC(=O)C(c3c(C)cc(C)cc3C)C2=O)cc1 (centres unmarked) [Compound A18] | 60 | 80 | 100 | 90
15 | Cc1cc(C)c(C2C(=O)CC(CCNC(=O)c3ccccc3Cl)C2=O)c(C)c1 (centres unmarked) [Compound A20] | 70 | 70 | 100 | 100
16 | CCC(CC1CC(=O)C(c2c(C)cc(C)cc2C)C1=O)NC(=O)c1ccc(F)cc1 (centres unmarked) [Compound A21] | 90 | 90 | 100 | 100
17 | Cc1cc(C)c(C2C(=O)CC(CCNC(=O)c3ccc(Cl)nc3)C2=O)c(C)c1 (centres unmarked) [Compound A22] | 70 | 80 | 80 | 80
18 | Cc1cc(C)c(C2C(=O)CC(CCNC(=O)c3ccc(Cl)nc3Cl)C2=O)c(C)c1 (centres unmarked) [Compound A24] | 80 | 80 | 80 | 90

Row | Compound | pest or weed control at 250 g/ha [1] [%] | pest or weed control at 250 g/ha [2] [%] | pest or weed control at 250 g/ha [3] [%] | pest or weed control at 250 g/ha [4] [%]
19 | Cc1cc(C)c(C2C(=O)CC(CCNC(=O)c3cc(Cl)nc(Cl)c3)C2=O)c(C)c1 (centres unmarked) [Compound A25] | 50 | 40 | 80 | 60
20 | Cc1cc(C)c(C2C(=O)CC(CCNC(=O)c3cccnc3Cl)C2=O)c(C)c1 (centres unmarked) [Compound A26] | 80 | 80 | 80 | 80
21 | Cc1cc(C)c(C2C(=O)CC(CCNC(=O)c3ccc4ccccc4n3)C2=O)c(C)c1 (centres unmarked) [Compound A27] | 80 | 90 | 100 | 70
22 | COc1cc(C(=O)NCCC2CC(=O)C(c3c(C)cc(C)cc3C)C2=O)cc(Cl)n1 (centres unmarked) [Compound A28] | 100 | 50 | 80 | 70
23 | Cc1cc(C)c(C2C(=O)CC(CCNC(=O)c3ccc(C(F)(F)F)nc3)C2=O)c(C)c1 (centres unmarked) [Compound A29] | 80 | 90 | 80 | 80
24 | Cc1cc(C)c(C2C(=O)CC(CCNC(=O)C3CCOCC3)C2=O)c(C)c1 (centres unmarked) [Compound A35] | 80 | 40 | 40 | 60
25 | Cc1cc(C)c(C2C(=O)CC(CCNC(=O)C3CCOC3)C2=O)c(C)c1 (centres unmarked) [Compound A36] | 80 | 70 | 80 | 80
26 | Cc1cc(C)c(C2C(=O)CC(CCNC(=O)c3cccc[n+]3[O-])C2=O)c(C)c1 (centres unmarked) [Compound A37] | 100 | 80 | 80 | 90
27 | Cc1cc(-c2ccc(Cl)cn2)cc(C)c1C1C(=O)CC(CCNC(=O)c2ccccn2)C1=O (centres unmarked) [Compound A38] | 100 | 100 | 100 | 100
28 | Cc1cc(C)c(C2C(=O)CC(CCNC(=O)c3nc(Cl)ccc3Cl)C2=O)c(C)c1 (centres unmarked) [Compound A39] | 100 | 100 | 100 | 100
29 | Cc1cc(C)c(C2C(=O)CC(CCNC(=O)c3nc(Cl)ccc3Br)C2=O)c(C)c1 (centres unmarked) [Compound A40] | 100 | 100 | 100 | 100
30 | Cc1cc(C)c(C2C(=O)CC(CCNC(=O)c3ncccc3N)C2=O)c(C)c1 (centres unmarked) [Compound A41] | 70 | 70 | 60 | 70
31 | Cc1cc(C)c(C2C(=O)CC(CCNC(=O)c3ncc(C(F)(F)F)cc3Cl)C2=O)c(C)c1 (centres unmarked) [Compound A43] | 100 | 100 | 100 | 100
32 | Cc1cc(C)c(C2C(=O)CC(CCNC(=O)c3ncccc3Cl)C2=O)c(C)c1 (centres unmarked) [Compound A44, 3-chloro-N-[2-[2,4-dioxo-3-(2,4,6-trimethylphenyl)cyclopentyl]ethyl]pyridine-2-carboxamide] | 100 | 90 | 100 | 100
33 | Cc1cc(C)c(C2C(=O)CC(CCNC(=O)Cc3ccccn3)C2=O)c(C)c1 (centres unmarked) [Compound A45] | 50 | 80 | 60 | 80
34 | Cc1cc(C)c(C2C(=O)CC(CCNC(=O)c3ncccc3Br)C2=O)c(C)c1 (centres unmarked) [Compound A46] | 60 | 70 | 90 | 100
35 | Cc1cc(C)c(C2C(=O)CC(CCNC(=O)c3cccc(Cl)n3)C2=O)c(C)c1 (centres unmarked) [Compound A47] | 80 | 90 | 100 | 100
